According to US11319321B2, “[1,2,4]triazolo[1,5-a]pyrimidine compounds as PDE2 inhibitors” (Janssen Pharmaceutica NV, priority 2016, dated 2022):
Where two headings read alike, the source gives them in different places.

Legend:
[1] = target: T1, Human recombinant PDE2A (hPDE2A) (Homo sapiens, UniProt O00408); test: In vitro assay PDE2A (SPA, 3H-cGMP); format: biochemical
T1 construct: made in house; host or cells: Sf9 insect cells (baculovirus)
Description: Human recombinant PDE2A (hPDE2A) was expressed in Sf9 cells using a recombinant rPDE10A baculovirus construct. Cells were harvested after 48 h of infection and the hPDE2A protein was purified by metal chelate chromatography on Ni-sepharose 6FF. Tested compounds were dissolved and diluted in 100% DMSO to a concentration 100 fold of the final concentration in the assay. Compound dilutions (0.4 μl) were added in 384 well plates to 20 μl of incubation buffer (50 mM Tris pH 7.8, 8.3 mM MgCl2, 1.7 mM EGTA). 10 μl of hPDE2A enzyme in incubation buffer was added and the reaction was started by addition of 10 μl substrate to a final concentration of 10 μM cGMP and 0.01 μCi ^3H-cGMP. The reaction was incubated for 45 minutes at room temperature. […] After sedimentation of the beads during 30 minutes the radioactivity was measured in a Perkin Elmer Topcount scintillation counter and results were expressed as cpm. For blanc values the enzyme was omitted from the reaction and replaced by incubation buffer. Control values were obtained by addition of a final concentration of 1% DMSO instead of compound.

[2] = tested on: hPDE3B; test: In vitro assay PDE3 (SPA, 3H-cAMP); format: biochemical, human; settings: 0.4 μM cAMP substrate; for hPDE3B Emax: in % (unit assumed)
[3] = target: hPDE10A2 (Homo sapiens, UniProt Q9Y233); test: biochemical; settings: 60 nM cAMP substrate; for IC50: human clone, read-out: hPDE10A2 or rPDE10A2 pIC50 (converted); for Emax: read-out: hPDE10A2 or rPDE10A2 Emax, human clone
Description: Rat recombinant PDE10A (rPDE10A2) was expressed in Sf9 cells using a recombinant rPDE10A baculovirus construct. Cells were harvested after 48 h of infection and the rPDE10A protein was purified by metal chelate chromatography on Ni-sepharose 6FF. Tested compounds were dissolved and diluted in 100% DMSO to a concentration 100 fold of the final concentration in the assay. Human recombinant PDE10A ([…]) was expressed in Sf9 cells using a recombinant hPDE10A baculovirus that was made and amplified in house. Cells were harvested after 72 h of infection and the hPDE10A protein was purified by metal chelate chromatography on Ni-sepharose. Compound dilutions (0.4 μl) were added in 384 well plates to 20 μl of incubation buffer (50 mM Tris pH 7.8, 8.3 mM MgCl2, 1.7 mM EGTA). 10 μl of rPDE10A or hPDE10A enzyme in incubation buffer was added and the reaction was started by addition of 10 μl substrate to a final concentration of 60 nM cAMP and […] ^3H-cAMP. The reaction was incubated for 60 minutes at room temperature. After incubation, the reaction was stopped with 20 μl of stop solution consisting of 17.8 mg/ml PDE SPA (scintillation proximity assay) beads. After sedimentation of the beads during 30 minutes the radioactivity was measured in a Perkin Elmer Topcount scintillation counter and results were expressed as cpm. For blanc values the enzyme was omitted from the reaction and replaced by incubation buffer. Control values were obtained by addition of a final concentration of 1% DMSO instead of compound. A best fit curve is fitted by a minimum sum of squares method to the plot of % of control value substracted with blanc value versus compound concentration and the half maximal inhibitory concentration (IC50) value is derived from this curve.

[4] = hPDE2A pIC50, 10 μM cGMP substrate
[5] = 10 μM cGMP substrate, read-out: hPDE2A pIC50 (converted)

Sequence of hPDE10A2 (Q9Y233 267-1055): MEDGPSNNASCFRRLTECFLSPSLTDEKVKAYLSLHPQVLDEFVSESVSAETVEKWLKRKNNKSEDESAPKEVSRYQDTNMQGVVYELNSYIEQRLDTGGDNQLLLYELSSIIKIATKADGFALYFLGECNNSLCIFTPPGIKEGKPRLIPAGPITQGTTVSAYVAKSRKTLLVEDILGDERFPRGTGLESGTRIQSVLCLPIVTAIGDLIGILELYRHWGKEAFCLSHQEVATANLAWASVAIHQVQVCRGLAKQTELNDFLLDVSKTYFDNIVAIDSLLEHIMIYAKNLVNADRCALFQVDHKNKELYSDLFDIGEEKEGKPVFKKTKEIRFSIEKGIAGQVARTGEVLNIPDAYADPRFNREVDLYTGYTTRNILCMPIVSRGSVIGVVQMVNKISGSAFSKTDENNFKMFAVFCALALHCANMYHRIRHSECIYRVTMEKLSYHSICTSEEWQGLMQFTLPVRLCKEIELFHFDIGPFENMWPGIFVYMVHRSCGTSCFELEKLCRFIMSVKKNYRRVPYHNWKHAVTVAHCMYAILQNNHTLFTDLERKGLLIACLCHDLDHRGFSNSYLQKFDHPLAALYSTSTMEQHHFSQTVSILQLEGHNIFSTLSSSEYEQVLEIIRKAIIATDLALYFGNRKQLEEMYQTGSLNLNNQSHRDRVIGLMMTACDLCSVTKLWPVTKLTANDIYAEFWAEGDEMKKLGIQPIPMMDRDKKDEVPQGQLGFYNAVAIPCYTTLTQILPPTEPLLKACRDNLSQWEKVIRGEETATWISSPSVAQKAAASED
T1 sequence (O00408 whole entry): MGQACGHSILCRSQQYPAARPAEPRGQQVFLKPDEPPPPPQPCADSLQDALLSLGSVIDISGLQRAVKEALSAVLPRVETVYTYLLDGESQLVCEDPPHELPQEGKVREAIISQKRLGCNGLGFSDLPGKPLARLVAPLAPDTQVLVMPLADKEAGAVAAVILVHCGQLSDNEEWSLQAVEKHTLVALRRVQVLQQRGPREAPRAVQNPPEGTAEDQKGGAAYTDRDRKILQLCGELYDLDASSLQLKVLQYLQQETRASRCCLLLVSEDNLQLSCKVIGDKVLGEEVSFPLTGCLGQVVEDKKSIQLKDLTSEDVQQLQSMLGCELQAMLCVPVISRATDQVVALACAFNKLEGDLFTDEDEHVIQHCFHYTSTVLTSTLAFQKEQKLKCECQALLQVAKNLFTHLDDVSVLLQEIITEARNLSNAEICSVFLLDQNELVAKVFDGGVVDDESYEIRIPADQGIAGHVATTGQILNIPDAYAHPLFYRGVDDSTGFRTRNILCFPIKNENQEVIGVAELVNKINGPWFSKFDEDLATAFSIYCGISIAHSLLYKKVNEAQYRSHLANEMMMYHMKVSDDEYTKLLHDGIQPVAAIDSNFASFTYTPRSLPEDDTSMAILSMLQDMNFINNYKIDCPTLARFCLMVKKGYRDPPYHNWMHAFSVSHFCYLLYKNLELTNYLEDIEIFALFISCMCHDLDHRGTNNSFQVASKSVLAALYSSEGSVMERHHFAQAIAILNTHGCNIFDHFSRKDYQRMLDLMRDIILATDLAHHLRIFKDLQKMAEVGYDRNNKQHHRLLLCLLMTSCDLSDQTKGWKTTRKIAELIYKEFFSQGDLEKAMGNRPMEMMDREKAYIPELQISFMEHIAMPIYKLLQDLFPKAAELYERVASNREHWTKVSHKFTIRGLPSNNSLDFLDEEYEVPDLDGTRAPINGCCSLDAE

Row | Structure (SMILES) | Emax ([1]; 10 μM cGMP substrate) [%] | IC50 [1, 4] [nM] | hPDE3B pIC50 [2] | hPDE3B Emax [2] | IC50 [3] [nM] | Emax [3] [%] | IC50 [1, 5] [nM] | IC50 [1] [nM]
1 | Cc1cc(C(C)N2CC[C@@H](C)[C@H](c3cc(C(F)F)nc4ncnn34)C2)cc(C)n1 (mixture of isomers) [Compound 1] | 100 | 20.9 | <5 | 45 | 2950 | 74 |  | 
2 | Cc1cc([C@H](C)N2CC[C@@H](C)[C@H](c3cc(C(F)F)nc4ncnn34)C2)cc(C2CC2)n1 (relative stereo) [Compound 2] | 99 |  | <5 | 29 | 2950 | 78 | 87.1 | 
3 | C[C@@H]1CCN([C@@H](C)c2ccc(C(F)(F)F)cc2)C[C@H]1c1cc(C(F)F)nc2ncnn12 (relative stereo) [Compound 6] | 99 |  | <5 | 37 | 6310 | 68 |  | 178
4 | C[C@@H]1CCN([C@H](C)c2ccc(C(F)(F)F)cc2)C[C@H]1c1cc(C(F)F)nc2ncnn12 (relative stereo) [Compound 7] | 98 |  | 5.08 | 57 | 7760 | 47 |  | 102
5 | Cc1cc([C@H](C)N2CC[C@@H](C)[C@H](c3cc(C(F)F)nc4ncnn34)C2)cc(Cl)n1 (single isomer, unassigned) [Compound 4] | 99 |  | <5 | 45 | 1100 | 88 | 7.76 | 
6 | Cc1cc([C@@H](C)N2CC[C@@H](C)[C@H](c3cc(C(F)F)nc4ncnn34)C2)cc(Cl)n1 (single isomer, unassigned) [Compound 5] | 100 |  | 5.13 | 55 | 1510 | 87 | 77.6 | 
7 | C[C@@H]1CCN([C@H](C)c2ccc3ncsc3c2)C[C@H]1c1cc(C(F)F)nc2ncnn12 (single isomer, unassigned) [Compound 12] | 99 |  | ~5.07 | 54 | 2040 | 86 |  | 44.7
8 | C[C@@H]1CCN([C@@H](C)c2ccc3ncsc3c2)C[C@H]1c1cc(C(F)F)nc2ncnn12 (single isomer, unassigned) [Compound 13] | 98 |  | ~5.02 | 47 | 1480 | 85 |  | 58.9
9 | Cc1cc(CN2CC[C@@H](C)[C@@](F)(c3cc(C(F)F)nc4ncnn34)C2)cc(C)n1 (single isomer, unassigned) [Compound 49] | 86 | 2140 | <5 | 17 | > 10000 | 12 |  | 
10 | COc1ccc(CN2CCC[C@](C)(c3cc(C(F)F)nc4ncnn34)C2)c(OC)c1.Cl (stereo in doubt) [Compound 53] | 14 | 6920 | <5 | 3 | > 10000 | 0 |  | 
11 | C[C@]1(c2cc(C(F)F)nc3ncnn23)CCCN(Cc2ccc(F)c(F)c2)C1.Cl (stereo in doubt) [Compound 54] | 15 |  | <5 | 5 | > 10000 | 9 | ~8910 | 
12 | Cc1cc(CN2CC[C@@H](C)[C@H](c3cc(C(F)F)nc4ncnn34)C2)cc(C2CC2)n1 [Compound 9] | 100 |  | <5 | 34 | 1580 | 83 | 5.25 | 
13 | Cc1cc(CN2CC[C@@H](C)[C@H](c3cc(C(F)F)nc4ncnn34)C2)cc(Cl)n1.Cl [Compound 10] | 96 |  | <5 | 19 | 1580 | 82 |  | 24.5
